Source: patent US9675614B2, “PRMT5 inhibitors and uses thereof” (Epizyme, Inc., priority 2012, dated 2017)
pEC50, pIC50: −log10 of the molar value. Where two headings read alike, the source gives them in different places.

Legend:
[1] = system: symmetric di-methyl arginine in Z-138 cells; assay: Z-138 Methylation Assay (In Cell Western for symmetric di-methyl arginine and DNA content); format: cell-based; settings: read-out: ICW EC50
From the text: [formula] Where top and bottom are the normally allowed to float, but may be fixed at 100 or 0 respectively in a 3-parameter fit. The Hill Coefficient normally allowed to float but may also be fixed at 1 in a 3-parameter fit. Y is the % inhibition and X is the compound concentration.
RPMI/Glutamax medium, penicillin-streptomycin, heat inactivated fetal bovine serum, and D-PBS were purchased from Life Technologies, Grand Island, N.Y., USA. Odyssey blocking buffer, 800CW goat anti-rabbit IgG (H+L) antibody, and Licor Odyssey infrared scanner were purchased from Licor Biosciences, Lincoln, Nebr., USA. Symmetric di-methyl arginine antibody was purchased from EMD Millipore, Billerica, Mass., USA. 16% Paraformaldehyde was purchased from Electron Microscopy Sciences, Hatfield, Pa., USA.
Cell Treatment, in Cell Western (ICW) for Detection of Symmetric Di-Methyl Arginine and DNA Content.
Z-138 cells were seeded in assay medium at a concentration of 50,000 cells per mL to a 384-well cell culture plate with 50 μL per well. Compound (100 nL) from 384 well source plates was added directly to 384 well cell plate. Plates were incubated at 37° C., 5% CO2 for 96 hours. […] Plates were incubated at room temperature for 30 minutes then incubated at 37° C., 5% CO2 for 5 hours. After the incubation, 40 μL per well of 8% paraformaldehyde in PBS (16% paraformaldahyde was diluted to 8% in PBS) was added to each plate and incubated for 30 minutes. […] Next 30 μL per well of Odyssey blocking buffer were added to each plate and incubated 1 hour at room temperature. […]
First, the ratio for each well was determined by:
Each plate included fourteen control wells of DMSO only treatment (minimum inhibition) as well as fourteen control wells for maximum inhibition treated with 3 μM of a reference compound (Background wells). The average of the ratio values for each control type was calculated and used to determine the percent inhibition for each test well in the plate. […] Percent inhibition was determined and IC50 curves were generated using triplicate wells per concentration of compound.

PRMT5/MEP50 = PRMT5/MEP50 (Homo sapiens (Human), UniProt O14744); assay: PRMT5 Biochemical Assay (PRMT5/MEP50 enzyme assay on peptide substrate, 3H-SAM Flashplate); settings: PRMT5/MEP50 biochemical assay; read-out: Biochemical IC50
Z-138 cell line = assay: Z-138 Proliferation Assay (Cell Titer Glo, 5 days); format: cell-based; settings: Z-138 cells
From the text: RPMI/Glutamax medium, penicillin-streptomycin, heat inactivated fetal bovine serum were purchased from Life Technologies, Grand Island, N.Y., USA. V-bottom polypropylene 384-well plates were purchased from Greiner Bio-One, Monroe, N.C., USA. Cell culture 384-well white opaque plates were purchased from Perkin Elmer, Waltham, Mass., USA. Cell-Titer Glo® was purchased from Promega Corporation, Madison, Wis., USA. SpectraMax M5 plate reader was purchased from Molecular Devices LLC, Sunnyvale, Calif., USA.
A compound source plate was prepared by performing triplicate nine-point 3-fold serial dilutions in DMSO, beginning at 10 mM (final top concentration of compound in the assay was 20 μM and the DMSO was 0.2%). A 100 nL aliquot from the compound stock plate was added to its respective well in the cell plate. […] After addition of compounds, assay plates were incubated for 5 days at 37° C., 5% CO2, relative humidity >90%. […] Luminescence was read in the SpectraMax M5 microplate reader. The concentration of compound inhibiting cell viability by 50% was determined using a 4-parametric fit of the normalized dose response curves.

Sequence of PRMT5/MEP50 (O14744 other isoform, or with tags, fused parts or gaps): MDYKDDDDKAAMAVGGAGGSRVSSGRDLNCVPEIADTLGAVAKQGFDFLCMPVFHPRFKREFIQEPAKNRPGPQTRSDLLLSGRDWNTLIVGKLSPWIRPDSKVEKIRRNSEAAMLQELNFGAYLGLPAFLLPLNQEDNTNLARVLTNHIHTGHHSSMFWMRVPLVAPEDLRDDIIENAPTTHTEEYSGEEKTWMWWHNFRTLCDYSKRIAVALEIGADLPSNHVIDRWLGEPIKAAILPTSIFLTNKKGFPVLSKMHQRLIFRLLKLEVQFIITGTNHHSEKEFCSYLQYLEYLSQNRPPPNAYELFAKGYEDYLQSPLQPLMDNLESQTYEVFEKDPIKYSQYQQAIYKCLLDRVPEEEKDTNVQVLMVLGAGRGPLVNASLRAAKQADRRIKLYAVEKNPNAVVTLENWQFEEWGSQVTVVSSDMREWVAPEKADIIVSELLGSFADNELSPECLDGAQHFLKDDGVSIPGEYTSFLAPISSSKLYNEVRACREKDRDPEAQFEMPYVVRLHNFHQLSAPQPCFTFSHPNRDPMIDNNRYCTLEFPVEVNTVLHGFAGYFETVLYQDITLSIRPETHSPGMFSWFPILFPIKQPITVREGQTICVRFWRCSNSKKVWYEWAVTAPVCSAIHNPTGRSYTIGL
Sequence of PRMT5/MEP50 (Q9BQA1 other isoform, or with tags, fused parts or gaps partner): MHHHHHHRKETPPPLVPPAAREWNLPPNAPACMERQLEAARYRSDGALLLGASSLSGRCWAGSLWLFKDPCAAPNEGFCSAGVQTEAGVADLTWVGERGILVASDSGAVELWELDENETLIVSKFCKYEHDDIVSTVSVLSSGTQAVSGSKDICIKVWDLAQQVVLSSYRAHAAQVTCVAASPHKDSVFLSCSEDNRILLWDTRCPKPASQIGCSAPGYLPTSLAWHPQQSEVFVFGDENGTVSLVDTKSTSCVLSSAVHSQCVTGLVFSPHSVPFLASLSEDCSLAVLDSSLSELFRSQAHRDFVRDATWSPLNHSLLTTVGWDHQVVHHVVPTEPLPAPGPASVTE

| SMILES | pEC50 [1] | pIC50 (PRMT5/MEP50) | pEC50 (Z-138 cell line; Homo sapiens, Z-138, 120 h) | pEC50 ([1]; Homo sapiens) | pEC50 (Z-138 cell line) |
| --- | --- | --- | --- | --- | --- |
| CN1CCC(Oc2cccc(C(=O)NCC(O)CN3CCc4ccccc4C3)c2)C1 (stereo not drawn) [Compound 134] | 6.00 to 7.00 | > 7.00 |  |  |  |
| CN1CCC(Oc2cc(C(=O)NC[C@H](O)CN3CCc4ccccc4C3)ncn2)CC1 [Compound 206] |  | > 7.00 | 5.00 to 6.00 | 6.00 to 7.00 |  |
| CN1CCC(Oc2cccc(C(=O)NCC(O)CN3CCc4ccccc4C3)c2)C1 (stereo not drawn) [Compound 120] |  | > 7.00 |  | 6.00 to 7.00 | 5.00 to 6.00 |
| CS(=O)(=O)N1CCC(Oc2cccc(C(=O)NCC(O)CN3CCc4ccccc4C3)c2)C1 (stereo not drawn) [Compound 162] |  | > 7.00 |  |  |  |
